Experimental findings from ChEMBL document CHEMBL3608240, “Tetrahydropyrrolo-diazepenones as inhibitors of ERK2 kinase” (Bioorg Med Chem Lett, 2015) are described below.

The nature of series [1]: Clearance in rat at 1 mg/kg, iv relative to hepatic blood flow. Format: ADME, organism-based, Liver. To be noted: in vivo.
Series [2] in a line: Oral bioavailability in rat at 250 mg/kg. Format: ADME, organism-based. To be noted: in vivo.

As usually defined, the clearance is the volume of plasma or blood freed of the substance per unit of time. Low readings indicate inefficient removal, high ones efficient removal. A word on the bioavailability: it is the share of a dose that reaches the circulation, judged against a reference dose that is usually intravenous. Lower therefore signals poor availability. For `O=C1c2cc(-c3ccnc(NC4CCOCC4)n3)cn2CCCN1[C@H](CO)c1ccccc1`, in series [1], the clearance was found to be 79 mL/min/kg. In addition, the bioavailability in series [2] is below 10%.
